In US12358907B2, “Substituted pyrrolidine amides III” (GRÜNENTHAL GMBH, priority 2019, dated 2025):

Target: glucocorticoid receptor (GAL4 DBD-GR) (Homo sapiens (Human), UniProt P04150)
Assay: GR cell-based assays (GRE agonist / GRE antagonist), CHO-Gal4/GR luciferase reporter
Details: read-out: IC50 or EC50
From the text: Potential selective glucocorticoid receptor modulators of this intervention can be tested for modulation of the activity of the glucocorticoid receptor using cell-based assays. These assays involve a Chinese hamster ovary (CHO) cell line which contains fragments of the glucocorticoid receptor as well as fusion proteins. The glucocorticoid receptor fragments used are capable of binding the ligand (e.g. beclomethasone) to identify molecules that compete for binding with glucocorticoid receptor ligands. In more detail, the glucocorticoid receptor ligand binding domain is fused to the DNA binding domain (DBD) of the transcription factor GAL4 (GAL4 DBD-GR) and is stably integrated into a CHO cell line containing a GAL4-UAS-Luciferase reporter construct. […] After cell lysis the luminescence that is produced by luciferase after addition of the substrate is detected and EC50 or IC50 values can be calcuated. Engagement of molecules which induce gene expression via glucocortocoid receptor binding to the DNA leads to expression of the luciferase gene under the control of the fusion protein GAL4 DBD-GR and therefore to a dose-dependent increase of the luminescence signal. Binding of molecules which repress beclomethasone-induced gene expression of the luciferase gene under the control of the fusion protein GAL4 DBD-GR leads to a dose-dependent reduction of the luminescence signal.
The reporter cell line CHO-Gal4/GR consisted of a chinese hamster ovary (CHO) cell line (Leibniz Institute DSMZ—German Collection of Microorganisms and Cell Cultures GmbH: ACC-110) containing a firefly luciferase gene under the control of the GR ligand binding domain fused to the DNA binding domain (DBD) of GAL4 (GAL4 DBD-GR) stably integrated into CHO cells. This cell line was established by stable transfection of CHO cells with a GAL4-UAS-Luciferase reporter construct. In a subsequent step the ligand binding domain of the GR cloned into pIRES2-EGFP-GAL4 containing the DNA binding domain of GAL4 from pFA-AT2 was transfected. This fusion construct activated firefly luciferase expression under the control of a multimerized GAL4 upstream activation sequence (UAS). The signal of the emitted luminescence was recorded by the FLIPR^TETRA. This allowed for specific detection of ligand-induced activation of the GR and therefore for the identification of compounds with agonistic properties. The GAL4/UAS reporter was premixed with a vector that constitutively expressed Renilla luciferase, which served as an internal positive control for transfection efficiency.
The complete culture medium for the assay was: • DMEM F-12 (1:1) MIXTURE (LONZA cat. No: BE04-687F/U1) 500 mL • 5 mL of 100 mM Sodium Pyruvate (LONZA cat. No: BE12-115E) • 25 mL of 7.5% Sodium Bicarbonate (LONZA cat. No BE17-613E) • 6.5 mL of 1 M Hepes (LONZA cat. No: BE17-737E) • 5 mL of 100× Penicillin/Streptomycin (LONZA cat. No DE17-602E) • 50 mL of Fetal Bovine Serum (Euroclone cat. No ECS 0180L) • 0.25 mL of 10 mg/mL Puromycin (InvivoGen cat.: ant-pr-1) • 0.5 mL of 100 mg/mL Zeocin (InvivoGen cat.: ant-zn-1)
Cryo-preserved CHO-Gal4/GR cells were suspended in complete medium and 5000 cells/25 μl/well were seeded into the wells of 384-well polystyrene assay plates (Thermo Scientific, cat. #4332) and cultured at 37° C., 5% CO2 and 95% humidity. After 24 hours growth medium was carefully removed and replaced by 30 μl Opti-MEM (GIBCO, cat. #31985062) as assay buffer. To test the compounds an 8-point half-log compound dilution curve was generated in 100% DMSO starting from a 2 mM stock and compounds were then diluted 1:50 in Opti-MEM. 10 μl of compounds were then added to the wells containing 30 μl Opti-MEM resulting in a final assay concentration range from 10 μM to 0.003 μM in 0.5% DMSO. Compounds were tested at 8 concentrations in quadruplicate data points. […] Finally, cells were lysed with 20 μl of Triton/Luciferin solution and the signal of the emitted luminescence was recorded at the FLIPR^TETRA for 2 minutes. […]

Sequence of glucocorticoid receptor (GAL4 DBD-GR) (P04150 524-758): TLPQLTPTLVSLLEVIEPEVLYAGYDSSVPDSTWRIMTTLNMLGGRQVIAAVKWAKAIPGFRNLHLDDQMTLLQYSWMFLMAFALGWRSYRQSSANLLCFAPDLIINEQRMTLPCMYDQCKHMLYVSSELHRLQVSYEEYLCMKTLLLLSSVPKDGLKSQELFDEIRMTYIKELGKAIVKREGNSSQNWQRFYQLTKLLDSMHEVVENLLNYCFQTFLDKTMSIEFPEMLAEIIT

SMILES	IC50
O=C(N[C@@H]1[C@@H](c2ccccc2)N(c2cnc3c(cnn3-c3ccc(F)cc3)c2)C(=O)C12CC2)C1CC1 (racemic) [Example 31, N-[rac-((6R,7S)-5-(1-(4-fluorophenyl)-1H-pyrazolo[3,4-b]pyridin-5-yl)-4-oxo-6-phenyl-5-azaspiro[2.4]heptan-7-yl)]cyclopropanecarboxamide]	100 to 1000 nM
O=C(N[C@@H]1[C@@H](c2ccccc2)N(c2ccc3c(cnn3-c3ccc(F)cc3)n2)C(=O)C12CC2)C1CC1 (racemic) [Example 33, N-[rac-((6R,7S)-5-(1-(4-fluorophenyl)-1H-pyrazolo[4,3-b]pyridin-5-yl)-4-oxo-6-phenyl-5-azaspiro[2.4]heptan-7-yl)]cyclopropanecarboxamide]	1000 to 15000 nM
C[C@@H]1C(=O)N(c2ccc3c(cnn3-c3ccc(F)cc3)c2)[C@H](c2ccccc2)[C@H]1NC(=O)C1CC1 (racemic) [Example 46, N-[rac-(2R,3S,4S)-1-[1-(4-Fluorophenyl)-1H-indazol-5-yl]-4-methyl-5-oxo-2-phenyl-pyrrolidin-3-yl]-cyclopropanecarboxylic acid amide]	< 100 nM
C[C@@H]1C(=O)N(c2ccc3c(cnn3-c3ccc(F)cc3)c2)[C@H](c2ccccc2Cl)[C@H]1NC(=O)C(C)(F)F (racemic) [Example 47, N-[rac-(2R,3S,4S)-2-(2-Chlorophenyl)-1-[1-(4-fluorophenyl)-1H-indazol-5-yl]-4-methyl-5-oxo-pyrrolidin-3-yl]-2,2-difluoro-propionamide]	< 100 nM
Cc1ncsc1C(=O)N[C@H]1[C@H](C)C(=O)N(c2ccc3c(cnn3-c3ccc(F)cc3)c2)[C@@H]1c1ccccc1 (racemic) [Example 60, N-[rac(2R,3S,4S)-1-[1-(4-Fluorophenyl)-1H-indazol-5-yl]-4-methyl-5-oxo-2-phenyl-pyrrolidin-3-yl]-4-methyl-thiazole-5-carboxylic acid amide]	100 to 1000 nM
C[C@@H]1C(=O)N(c2ccc3c(cnn3-c3ccc(F)cc3)c2)[C@H](c2ccccc2)[C@H]1NS(C)(=O)=O (racemic) [Example 61, N-[rac-(2R,3S,4S)-1-[1-(4-Fluorophenyl)-1H-indazol-5-yl]-4-methyl-5-oxo-2-phenyl-pyrrolidin-3-yl]-methanesulfonic acid amide]	100 to 1000 nM
Cc1cccc([C@@H]2[C@@H](NS(C)(=O)=O)[C@H](C)C(=O)N2c2ccc3c(cnn3-c3ccc(F)cc3)c2)c1 (racemic) [Example 62, N-[rac-(2R,3S,4S)-1-[1-(4-Fluorophenyl)-1H-indazol-5-yl]-4-methyl-2-m-tolyl-5-oxo-pyrrolidin-3-yl]-methanesulfonic acid amide]	100 to 1000 nM
Cc1cccc([C@@H]2[C@@H](NC(=O)C3CC3)[C@H](C)C(=O)N2c2ccc3c(cnn3-c3ccc(F)cc3)c2)c1 (racemic) [Example 63, N-[rac-(2R,3S,4S)-1-[1-(4-Fluorophenyl)-1H-indazol-5-yl]-4-methyl-2-m-tolyl-5-oxo-pyrrolidin-3-yl]-cyclopropanecarboxylic acid amide]	100 to 1000 nM
C[C@@H]1C(=O)N(c2ccc3c(cnn3-c3ccc(F)cc3)c2)[C@H](c2ccccc2)[C@H]1NC(=O)c1ccn(C)n1 (racemic) [Example 64, N-[rac-(2R,3S,4S)-1-[1-(4-Fluorophenyl)-1H-indazol-5-yl]-4-methyl-5-oxo-2-phenyl-pyrrolidin-3-yl]-1-methyl-1H-pyrazole-3-carboxylic acid amide]	< 100 nM
C[C@@H]1C(=O)N(c2ccc3c(cnn3-c3ccc(F)cc3)c2)[C@H](c2ccccc2)[C@H]1NC(=O)c1cccnc1 (racemic) [Example 65, N-[rac-(2R,3S,4S)-1-[1-(4-Fluorophenyl)-1H-indazol-5-yl]-4-methyl-5-oxo-2-phenyl-pyrrolidin-3-yl]-pyridine-3-carboxylic acid amide]	< 100 nM
C[C@@H]1C(=O)N(c2ccc3c(cnn3-c3ccc(F)cc3)c2)[C@H](c2ccccc2)[C@H]1NC(=O)c1ncccn1 (racemic) [Example 66, N-[rac-(2R,3S,4S)-1-[1-(4-Fluorophenyl)-1H-indazol-5-yl]-4-methyl-5-oxo-2-phenyl-pyrrolidin-3-yl]-pyrimidine-2-carboxylic acid amide]	< 100 nM
Cc1cccc([C@@H]2[C@@H](NC(=O)c3scnc3C)[C@H](C)C(=O)N2c2ccc3c(cnn3-c3ccc(F)cc3)c2)c1 (racemic) [Example 67, N-[rac-(2R,3S,4S)-1-[1-(4-Fluorophenyl)-1H-indazol-5-yl]-4-methyl-2-m-tolyl-5-oxo-pyrrolidin-3-yl]-4-methyl-thiazole-5-carboxylic acid amide]	< 100 nM

The remaining lines, values ahead:

IC50	SMILES
100 to 1000 nM	Cc1cccc([C@@H]2[C@@H](NC(=O)c3cccnc3)[C@H](C)C(=O)N2c2ccc3c(cnn3-c3ccc(F)cc3)c2)c1 (racemic) [Example 68, N-[rac-(2R,3S,4S)-1-[1-(4-Fluorophenyl)-1H-indazol-5-yl]-4-methyl-2-m-tolyl-5-oxo-pyrrolidin-3-yl]-pyridine-3-carboxylic acid amide]
< 100 nM	Cc1cccc([C@@H]2[C@@H](NC(=O)c3ncccn3)[C@H](C)C(=O)N2c2ccc3c(cnn3-c3ccc(F)cc3)c2)c1 (racemic) [Example 69, N-[rac-(2R,3S,4S)-1-[1-(4-Fluorophenyl)-1H-indazol-5-yl]-4-methyl-2-m-tolyl-5-oxo-pyrrolidin-3-yl]-pyrimidine-2-carboxylic acid amide]
< 100 nM	Cc1cccc([C@@H]2[C@@H](NC(=O)C3CC3)[C@@H](C)C(=O)N2c2ccc3c(cnn3-c3ccc(F)cc3)c2)c1 (racemic) [Example 70, N-[rac-(2R,3S,4R)-1-[1-(4-Fluorophenyl)-1H-indazol-5-yl]-4-methyl-2-m-tolyl-5-oxo-pyrrolidin-3-yl]-cyclopropanecarboxylic acid amide]
100 to 1000 nM	Cc1cccc([C@@H]2[C@@H](NC(=O)c3scnc3C)[C@@H](C)C(=O)N2c2ccc3c(cnn3-c3ccc(F)cc3)c2)c1 (racemic) [Example 71, N-[rac-(2R,3S,4R)-1-[1-(4-Fluorophenyl)-1H-indazol-5-yl]-4-methyl-2-m-tolyl-5-oxo-pyrrolidin-3-yl]-4-methyl-thiazole-5-carboxylic acid amide]
< 100 nM	Cc1cccc([C@@H]2[C@@H](NC(=O)c3ccn(C)n3)[C@@H](C)C(=O)N2c2ccc3c(cnn3-c3ccc(F)cc3)c2)c1 (racemic) [Example 72, N-[rac-(2R,3S,4R)-1-[1-(4-Fluorophenyl)-1H-indazol-5-yl]-4-methyl-2-m-tolyl-5-oxo-pyrrolidin-3-yl]-1-methyl-1H-pyrazole-3-carboxylic acid amide]
< 100 nM	Cc1cccc([C@@H]2[C@@H](NC(=O)c3cccnc3)[C@@H](C)C(=O)N2c2ccc3c(cnn3-c3ccc(F)cc3)c2)c1 (racemic) [Example 73, N-[rac-(2R,3S,4R)-1-[1-(4-Fluorophenyl)-1H-indazol-5-yl]-4-methyl-2-m-tolyl-5-oxo-pyrrolidin-3-yl]-pyridine-3-carboxylic acid amide]
100 to 1000 nM	Cc1cccc([C@@H]2[C@@H](NC(=O)c3ncccn3)[C@@H](C)C(=O)N2c2ccc3c(cnn3-c3ccc(F)cc3)c2)c1 (racemic) [Example 74, N-[rac-(2R,3S,4R)-1-[1-(4-Fluorophenyl)-1H-indazol-5-yl]-4-methyl-2-m-tolyl-5-oxo-pyrrolidin-3-yl]-pyrimidine-2-carboxylic acid amide]
